The record followed here is EP4722358A1 (AJOU UNIVERSITY INDUSTRY-ACADEMIC COOPERATION FOUNDATION, priority 2023, dated 2024).

Common to all, as to test: Enzymatic reaction rate with glycerol (MBTH assay)
Holding throughout (format): biochemical

The subject of experiment [1] is Klebsiella pneumoniae fused glycerol dehydratase fGDHt variant A177M(α). To be noted: substrate glycerol, MBTH assay 5 minutes, deoxygenated 35 mM phosphate buffer (pH 8.0), 2 µM coenzyme B12. As for the experimental part:
(§1) The activities of the wild-type and variant enzymes were measured at 25°C using 3-methyl-2-benzothiazolinone hydrazone (MBTH). To eliminate oxygen inactivation, the enzymes were incubated for 5 minutes in 35 mM phosphate buffer (pH 8.0) stirred with a negative pressure pump. The reaction was initiated by the addition of glycerol. The absorbance measured at 670 nm of the variant was compared with that of the wild-type fGDHt to determine the relative substrate activity (FIG. 10). The MBTH assay was performed as follows:
(§2) The reaction was then initiated by adding glycerol, the substrate to the assay mixture. The reaction was performed for 5 minutes and the reaction was terminated by adding 12 mg/mL MBTH and 0.1 M potassium citrate buffer (pH 3.6). Five minutes after the reaction was terminated, FeCl3 was added thereto and the reaction was performed for 15 minutes. The absorbance was measured at 670 nm.
(§3) Km and Kcat were calculated using the following Equation (Michaelis-Menten equation): v = (d[P])/(dt) = Vmax ([S])/(KM + [S]) = kcat [E]0 ([S])/(KM + [S]) [formula]
(§4) wherein Km is the Michaelis constant and Kcat is the enzyme turnover number.

The test system of experiment [2] is Klebsiella pneumoniae fused glycerol dehydratase fGDHt variant A177M/L113W(α/β). To be noted: substrate glycerol, MBTH assay 5 minutes, deoxygenated 35 mM phosphate buffer (pH 8.0), 2 µM coenzyme B12. As for the experimental part:
as §1, §2, §3, §4

Experiment [3] deals with Klebsiella pneumoniae fused glycerol dehydratase fGDHt variant A177M/L113W/M158W(α/β/β). To be noted: substrate glycerol, MBTH assay 5 minutes, deoxygenated 35 mM phosphate buffer (pH 8.0), 2 µM coenzyme B12. As for the experimental part:
as §1, §2, §3, §4

In experiment [4] the test system is Klebsiella pneumoniae fused glycerol dehydratase fGDHt variant A177M/M158W(α/β). To be noted: substrate glycerol. The procedure:
as §1, §2, §3, §4

Experiment [5] concerns Klebsiella pneumoniae fused glycerol dehydratase fGDHt variant L113F(β). To be noted: substrate glycerol. The procedure:
as §1, §2, §3, §4

In experiment [6] the test system is Klebsiella pneumoniae fused glycerol dehydratase fGDHt variant L113W(β). To be noted: substrate glycerol, MBTH assay 5 minutes, deoxygenated 35 mM phosphate buffer (pH 8.0), 2 µM coenzyme B12. As for the experimental part: as §1, §2, §3, §4
Experiment [7] relates to Klebsiella pneumoniae fused glycerol dehydratase fGDHt variant M158W(β). To be noted: substrate glycerol, MBTH assay 5 minutes, deoxygenated 35 mM phosphate buffer (pH 8.0), 2 µM coenzyme B12. The procedure: as §1, §2, §3, §4
In experiment [8] the test system is Klebsiella pneumoniae glycerol dehydratase, fGDHt (alpha-beta fused subunit, stop codon TAA changed to glutamine CAA), SEQ ID NO: 4. To be noted: substrate glycerol, MBTH assay 5 minutes, deoxygenated 35 mM phosphate buffer (pH 8.0), 2 µM coenzyme B12. As for the experimental part:
as §1, §2, §3, §4

Where [9] appears, read: FGDHt(A177M/M158W(α/β)), MBTH assay 5 minutes, deoxygenated 35 mM phosphate buffer (pH 8.0), 2 µM coenzyme B12.
The mark [10] stands for this setting: fGDHt (L113F(β)), MBTH assay 5 minutes, deoxygenated 35 mM phosphate buffer (pH 8.0), 2 µM coenzyme B12.

For `OCC(O)CO` [glycerol], the Kcat is 107.48 ± 14.91 s⁻¹ in experiment [1]; 31.96 ± 9.42 s⁻¹ in experiment [2]; 28.93 ± 2.17 s⁻¹ in experiment [3]; 155.47 ± 13.23 s⁻¹ in experiment [4] (setting [9]); 208.62 ± 21.8 s⁻¹ in experiment [5] (setting [10]); 31.82 ± 10.99 s⁻¹ in experiment [6]. Also, the Kcat in experiment [8] was 230.28 ± 10.63 s⁻¹. Also, the Km (in general, the substrate concentration at which the rate is half of its maximum) in experiment [1] amounted to 360 ± 70 µM; in experiment [3] it was 140 ± 40 µM; in experiment [4] (setting [9]), 150 ± 40 µM; in experiment [5] (setting [10]) it was 240 ± 60 µM; in experiment [6] it was 520 ± 170 µM; in experiment [7], 340 ± 50 µM. Moreover, the Km in experiment [8] was determined as 270 ± 30 µM. For the same compound, the results for the “kcat/Km higher than those of fGDHt” value in experiment [4] (A177M/M158W (α/β) compared with fGDHt) and in experiment [5] (L113F (β) compared with fGDHt) were 8% and 6%, respectively.
